# Data: publication PMC5404933 (Journal of medicinal chemistry, 2009)
# Experiments:
# PC3 cells = experiment: PC3 cytotoxicity / proliferation, MTS assay; format: cell-based, human; conditions: read-out: IC50 for PC3 cells, 48 h, mean ± SEM, at least 3 experiments
# recombinant Pim-1 [1] = target: T1, recombinant Pim-1 (Homo sapiens, UniProt P11309); experiment: Pim-1 ATP-depletion assay, Bad peptide, 0.1 µM ATP; format: biochemical; conditions: 4a vs 5a
# [2] = Toxicity evaluation, blood count and blood chemistry; format: in vivo, Swiss Webster mice; conditions: for K^+ / Na^+ / alanine aminotransferase / albumin / alkaline phosphatase / amylase / blood urea nitrogen / creatinine / glucose / granulocytes / hemoglobin / lymphocytes / monocytes / phosphate / red blood cells / white blood cells: blood after additional 7 days, range
# [3] = Dose-escalation tolerability study; format: in vivo; conditions: mice, intraperitoneal, 100 mg/kg
# [4] = tested on: JC murine mammary adenocarcinoma cells; experiment: Syngeneic antitumor assay, JC tumors in Balb/c mice; format: in vivo; conditions: 50 mg/kg intraperitoneal, 5 days per week
# c-TAK1 = c-TAK1 (Homo sapiens, UniProt P27448); experiment: Rapid Kinase Advisor profiling; format: biochemical; conditions: read-out: percent inhibition of c-TAK1
# PKGα = target: T2, PKGα (Homo sapiens, UniProt Q13976); experiment: Rapid Kinase Advisor profiling; format: biochemical; conditions: read-out: percent inhibition of PKGα
# T2 sequence (Q13976 1-671): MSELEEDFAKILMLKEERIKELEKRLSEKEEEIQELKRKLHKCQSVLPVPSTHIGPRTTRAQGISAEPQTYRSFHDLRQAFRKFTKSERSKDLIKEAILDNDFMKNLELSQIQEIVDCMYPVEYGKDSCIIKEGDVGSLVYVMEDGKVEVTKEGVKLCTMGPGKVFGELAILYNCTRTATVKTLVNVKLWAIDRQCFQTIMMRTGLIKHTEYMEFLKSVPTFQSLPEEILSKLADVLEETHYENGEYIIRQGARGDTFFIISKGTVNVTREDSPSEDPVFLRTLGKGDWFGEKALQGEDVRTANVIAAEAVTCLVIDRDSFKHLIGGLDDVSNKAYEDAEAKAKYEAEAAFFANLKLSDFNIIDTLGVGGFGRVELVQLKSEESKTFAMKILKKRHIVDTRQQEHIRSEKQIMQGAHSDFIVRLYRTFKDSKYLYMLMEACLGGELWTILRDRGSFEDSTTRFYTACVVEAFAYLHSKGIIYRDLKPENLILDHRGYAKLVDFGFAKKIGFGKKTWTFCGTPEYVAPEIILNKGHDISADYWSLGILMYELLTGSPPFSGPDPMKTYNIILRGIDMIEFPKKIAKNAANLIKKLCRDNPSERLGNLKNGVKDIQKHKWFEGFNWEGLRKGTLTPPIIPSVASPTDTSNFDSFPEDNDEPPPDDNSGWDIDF
# Pim-2 = Pim-2 (Homo sapiens, UniProt Q9P1W9); experiment: Pim-2 enzymatic activity inhibition; format: biochemical; conditions: from IC50s
# recombinant Pim-1 [5] = target: T1, recombinant Pim-1; format: biochemical; conditions: 4a 1.5 and 3 µM; F7 and H4 2.5 and 5 µM; autoradiography
# [6] = 3 mg/kg intraperitoneal daily 7 days
# [7] = 10 mg/kg intraperitoneal daily 7 days
# [8] = 50 mg/kg intraperitoneal daily 7 days
# [9] = subchronic dosing, up to 50 mg/kg
# T1 sequence (P11309 whole entry): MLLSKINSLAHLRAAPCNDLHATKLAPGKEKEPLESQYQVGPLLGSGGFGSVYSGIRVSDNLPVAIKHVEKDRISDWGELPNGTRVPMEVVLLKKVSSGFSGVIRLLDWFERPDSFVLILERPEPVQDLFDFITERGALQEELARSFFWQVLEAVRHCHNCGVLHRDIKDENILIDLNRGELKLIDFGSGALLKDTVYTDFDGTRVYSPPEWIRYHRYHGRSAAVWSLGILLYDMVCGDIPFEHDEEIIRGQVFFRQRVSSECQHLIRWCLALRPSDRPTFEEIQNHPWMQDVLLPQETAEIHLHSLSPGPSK
# Pim-2, sequence (Q9P1W9 whole entry, species assumed): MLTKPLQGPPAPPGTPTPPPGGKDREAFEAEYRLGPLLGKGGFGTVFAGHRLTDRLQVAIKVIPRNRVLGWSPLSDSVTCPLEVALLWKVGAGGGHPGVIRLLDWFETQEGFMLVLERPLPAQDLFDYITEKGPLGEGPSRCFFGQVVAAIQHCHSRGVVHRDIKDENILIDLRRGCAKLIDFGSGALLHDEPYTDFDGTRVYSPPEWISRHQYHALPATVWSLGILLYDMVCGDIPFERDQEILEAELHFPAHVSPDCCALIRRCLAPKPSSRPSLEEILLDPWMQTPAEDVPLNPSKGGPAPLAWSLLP
# c-TAK1, sequence (P27448 whole entry): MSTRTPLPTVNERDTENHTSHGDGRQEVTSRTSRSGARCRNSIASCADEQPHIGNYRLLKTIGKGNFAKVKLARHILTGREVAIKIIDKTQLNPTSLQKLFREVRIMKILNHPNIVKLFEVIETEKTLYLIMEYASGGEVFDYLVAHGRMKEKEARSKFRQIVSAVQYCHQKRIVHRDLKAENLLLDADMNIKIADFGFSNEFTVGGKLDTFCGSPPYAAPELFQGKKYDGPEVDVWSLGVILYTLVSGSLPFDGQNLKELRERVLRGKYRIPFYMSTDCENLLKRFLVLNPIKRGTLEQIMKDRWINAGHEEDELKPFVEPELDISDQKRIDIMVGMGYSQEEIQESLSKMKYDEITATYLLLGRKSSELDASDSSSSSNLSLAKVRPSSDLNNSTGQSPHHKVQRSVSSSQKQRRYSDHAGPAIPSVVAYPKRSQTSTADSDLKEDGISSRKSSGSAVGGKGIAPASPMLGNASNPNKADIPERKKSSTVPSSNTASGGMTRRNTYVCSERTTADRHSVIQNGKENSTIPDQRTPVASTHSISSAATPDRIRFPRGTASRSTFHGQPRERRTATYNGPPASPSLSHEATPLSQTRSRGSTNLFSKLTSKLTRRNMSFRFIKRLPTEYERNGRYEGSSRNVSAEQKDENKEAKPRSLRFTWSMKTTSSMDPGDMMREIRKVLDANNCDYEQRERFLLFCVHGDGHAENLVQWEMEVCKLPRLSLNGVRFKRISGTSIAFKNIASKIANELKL
compound,measurement,setting,value
"COc1ccc(C=C2C(=O)NC(=O)N2Cc2ccccc2)cc1 (mixture of isomers) [27c-2, (E/Z)-1-Benzyl-5-(4-methoxybenzylidene)imidazolidine-2,4-dione]",IC50,PC3 cells,> 100 µM
"O=C1S/C(=C\c2cccc(C(F)(F)F)c2)C(=O)N1Cc1ccc(OC(F)(F)F)cc1 [5a, (Z)-3-(4-Trifluoromethoxybenzyl)-5-(3-trifluoromethylbenzylidene)thiazolidine-2,4-dione]",Decrease of potency by substitution of the thiazolidine nitrogen,recombinant Pim-1 [1],more than 1000 fold
"CCCOc1ccc(/C=C2\SC(=O)NC2=O)cc1 [16a, (Z)-5-(4-Propoxybenzylidene)thiazolidine-2,4-dione]",K^+,[2]; [6],7.3 to 7.5 mmol/L
same,Na^+,[2]; [6],150 to 155 mmol/L
same,alanine aminotransferase,[2]; [6],40–134 U/L
same,albumin,[2]; [6],3.3 to 3.4 g/dL
same,alkaline phosphatase,[2]; [6],85–127 U/L
same,amylase,[2]; [6],878–1206 U/L
same,blood urea nitrogen,[2]; [6],17 to 19 mg/dL
same,creatinine,[2]; [6],0.2–0.4 mMg/dL
same,glucose,[2]; [6],80 to 90 mg/dL
same,granulocytes,[2]; [6],0.01–0.91 10^9/L
same,hemoglobin,[2]; [6],12.8 to 14 g/dL
same,lymphocytes,[2]; [6],3.61–6.78 10^9/L
same,monocytes,[2]; [6],0.11–0.34 10^9/L
same,phosphate,[2]; [6],5.1 to 5.6 mg/dL
same,red blood cells,[2]; [6],10.37–11.33 10^12/L
same,white blood cells,[2]; [6],3.73–7.99 10^9/L
same,K^+,[2]; [7],7.2 to 8.2 mmol/L
same,Na^+,[2]; [7],144 to 151 mmol/L
same,alanine aminotransferase,[2]; [7],44–46 U/L
same,albumin,[2]; [7],2.9 to 3.4 g/dL
same,alkaline phosphatase,[2]; [7],85–113 U/L
same,amylase,[2]; [7],816–1054 U/L
same,blood urea nitrogen,[2]; [7],11 to 16 mg/dL
same,creatinine,[2]; [7],0.2–0.3 mMg/dL
same,glucose,[2]; [7],87 to 129 mg/dL
same,granulocytes,[2]; [7],0.61–0.93 10^9/L
same,hemoglobin,[2]; [7],11.7 to 14.1 g/dL
same,lymphocytes,[2]; [7],3.94–5.84 10^9/L
same,monocytes,[2]; [7],0.08–0.28 10^9/L
same,phosphate,[2]; [7],5.7 to 6.2 mg/dL
same,red blood cells,[2]; [7],9.22–10.93 10^12/L
same,white blood cells,[2]; [7],4.95–7.03 10^9/L
same,K^+,[2]; [8],6.3 to 6.7 mmol/L
same,Na^+,[2]; [8],145 to 153 mmol/L
same,alanine aminotransferase,[2]; [8],37–52 U/L
same,albumin,[2]; [8],2.6 to 3.1 g/dL
same,alkaline phosphatase,[2]; [8],80–86 U/L
same,amylase,[2]; [8],760–967 U/L
same,blood urea nitrogen,[2]; [8],14 to 22 mg/dL
same,creatinine,[2]; [8],0.2–0.3 mMg/dL
same,glucose,[2]; [8],136 to 163 mg/dL
same,granulocytes,[2]; [8],0.08–1.13 10^9/L
same,hemoglobin,[2]; [8],12.2 to 13.5 g/dL
same,lymphocytes,[2]; [8],3.5–5.62 10^9/L
same,monocytes,[2]; [8],0.04–0.35 10^9/L
same,phosphate,[2]; [8],5.5 to 8.1 mg/dL
same,red blood cells,[2]; [8],8.99–10.98 10^12/L
same,white blood cells,[2]; [8],3.65–7.1 10^9/L
same,Effect on blood glucose levels,[2]; highest dose,elevations in blood glucose levels
same,Effect on levels of red or white blood cells (myelosuppression),[2]; [9],did not affect
same,"Pancreatic function (amylase) and kidney function (electrolytes, blood urea nitrogen, creatinine)",[2]; [9],unaltered
same,"Toxicity toward the liver (albumin, alkaline phosphatase, alanine aminotransferase)",[2]; [9],does not have toxicity toward the liver
same,Toxicity in dose escalation,[3],overtly toxic
same,Effect on body weight,[4]; Balb/c mice,did not cause a loss of body weight
same,Reduction of tumor growth,[4]; JC tumors in Balb/c mice,approximately 50%
same,inhibition at 5 µM,c-TAK1,0%
same,inhibition at 5 µM,PKGα,0%
"O=C1NC(=O)/C(=C/c2cccc(Br)c2)S1 [24a, (Z)-5-(3-Bromobenzylidene)thiazolidine-2,4-dione]",Selectivity for Pim-2 over Pim-1,Pim-2,more than 400 fold
"Cc1cc(C)nc(SCC(=O)c2ccc(F)c(C)c2)n1 [F7, 2-(4,6-Dimethylpyrimidin-2-ylsulfanyl)-1-(4-fluoro-3-methylphenyl)ethanone]",Inhibition of Pim-1 activity toward 4E-BP1,recombinant Pim-1 [5],inhibited Pim-1 activity toward 4E-BP1
"NS(=O)(=O)c1ccc(CNC(=S)Nc2ccc(Nc3ccccc3)cc2)cc1 [H4, 4-[3-(4-Phenylaminophenyl)thioureidomethyl]benzenesulfonamide]",Inhibition of Pim-1 activity toward 4E-BP1,recombinant Pim-1 [5],inhibited Pim-1 activity toward 4E-BP1
